These results are taken from ChEMBL document CHEMBL1649246, “Complete nucleotide sequences of plasmids pEK204, pEK499, and pEK516, encoding CTX-M enzymes in three major Escherichia coli lineages from the United Kingdom, all belonging to the international O25:H4-ST131 clone” (2009).

Usually MIC stands for the least concentration at which growth counts as inhibited.

Holding throughout (format): functional
Assay [1] concerns Escherichia coli. Put plainly: Antimicrobial activity against Escherichia coli DH5[alpha].
Assay [2] relates to Escherichia coli. Description: Antimicrobial activity against Escherichia coli DH5[alpha] harboring pEK516 plasmid encoding CTX-M extended-spectrum beta-lactamases.
Assay [3] concerns Escherichia coli. Description: Antimicrobial activity against Escherichia coli J53 harboring pEK499 plasmid encoding CTX-M extended-spectrum beta-lactamases.
The test system of assay [4] is Escherichia coli. Description: Antimicrobial activity against Escherichia coli J53 harboring pEK204 plasmid encoding CTX-M extended-spectrum beta-lactamases.
Assay [5] relates to Escherichia coli. Description: Antimicrobial activity against Escherichia coli J53.
For assay [6], the system named is Escherichia coli. Description: Antimicrobial activity against Escherichia coli DH5[alpha] in presence of beta-lactamase inhibitor clavulanic acid.
In assay [7] the test system is Escherichia coli. Put plainly: Antimicrobial activity against Escherichia coli J53 in presence of beta-lactamase inhibitor clavulanic acid.
Assay [8] relates to Escherichia coli. Description: Antimicrobial activity against Escherichia coli DH5[alpha] harboring pEK516 plasmid encoding CTX-M extended-spectrum beta-lactamases in presence of beta-lactamase inhibitor clavulanic acid.
For assay [9], the system named is Escherichia coli. Put plainly: Antimicrobial activity against Escherichia coli J53 harboring pEK499 plasmid encoding CTX-M extended-spectrum beta-lactamases in presence of beta-lactamase inhibitor clavulanic acid.
In assay [10] the test system is Escherichia coli. Description: Antimicrobial activity against Escherichia coli J53 harboring pEK204 plasmid encoding CTX-M extended-spectrum beta-lactamases in presence of beta-lactamase inhibitor clavulanic acid.
The subject of assay [11] is Escherichia coli. Put plainly: Antimicrobial activity against Escherichia coli J53 harboring pEK499 plasmid encoding CTX-M extended-spectrum beta-lactamases in presence of beta-lactamase inhibitor Tazobactam.
In assay [12] the test system is Escherichia coli. Put plainly: Antimicrobial activity against Escherichia coli DH5[alpha] in presence of beta-lactamase inhibitor Tazobactam.
Assay [13] relates to Escherichia coli. Description: Antimicrobial activity against Escherichia coli J53 in presence of beta-lactamase inhibitor Tazobactam.
In assay [14] the test system is Escherichia coli. Description: Antimicrobial activity against Escherichia coli DH5[alpha] harboring pEK516 plasmid encoding CTX-M extended-spectrum beta-lactamases in presence of beta-lactamase inhibitor Tazobactam.
For assay [15], the system named is Escherichia coli. Description: Antimicrobial activity against Escherichia coli J53 harboring pEK204 plasmid encoding CTX-M extended-spectrum beta-lactamases in presence of beta-lactamase inhibitor Tazobactam.

Values after ≈ are worked out from the molar mass of the structure shown. Some results are limits rather than exact numbers.

On to `CN(C)[C@@H]1C(O)=C(C(N)=O)C(=O)[C@@]2(O)C(O)=C3C(=O)c4c(O)cccc4[C@@](C)(O)[C@H]3C[C@@H]12` [TETRACYCLINE], for which the MIC stood at 1 µg/mL (≈ 2.25 µM) against Escherichia coli [1]; 32 µg/mL (≈ 72 µM) in the assay on Escherichia coli [2]; 32 µg/mL (≈ 72 µM) in the assay on Escherichia coli [3]; 1 µg/mL (≈ 2.25 µM) against Escherichia coli [4]; 1 µg/mL (≈ 2.25 µM) against Escherichia coli [5].

`NC[C@H]1O[C@H](O[C@H]2[C@H](O)[C@@H](O[C@H]3O[C@H](CO)[C@@H](O)[C@H](N)[C@H]3O)[C@H](N)C[C@@H]2N)[C@H](N)C[C@@H]1O` [TOBRAMYCIN]: the minimal inhibitory concentration (MIC) against Escherichia coli [1] amounted to 0.5 µg/mL (≈ 1.07 µM); against Escherichia coli [2], 8 µg/mL (≈ 17.1 µM); against Escherichia coli [3] it was 8 µg/mL (≈ 17.1 µM); against Escherichia coli [4], 0.5 µg/mL (≈ 1.07 µM); against Escherichia coli [5], 0.25 µg/mL (≈ 0.535 µM).

With `O=C(O)c1cn(C2CC2)c2cc(N3CCNCC3)c(F)cc2c1=O` [CIPROFLOXACIN], the MIC in the assay on Escherichia coli [1] and in the assay with Escherichia coli [5] was at most 0.125 µg/mL in each case.

`CO/N=C(\C(=O)N[C@@H]1C(=O)N2C(C(=O)[O-])=C(C[n+]3cccc4c3CCC4)CS[C@H]12)c1csc(N)n1` [CEFPIROME]: the MIC was at most 0.125 µg/mL against Escherichia coli [1]; at most 0.06 µg/mL in the assay with Escherichia coli [6]; 64 µg/mL (≈ 124 µM) against Escherichia coli [2]; at most 0.06 µg/mL in the assay with Escherichia coli [7]; over 64 µg/mL with Escherichia coli [3]; 16 µg/mL (≈ 31.1 µM) with Escherichia coli [4]. The compound also showed a minimal inhibitory concentration (MIC) against Escherichia coli [5] of at most 0.125 µg/mL.

As to `C[C@@H](O)[C@H]1C(=O)N2C(C(=O)O)=C(SCCNC=N)C[C@H]12` [IMIPENEM ANHYDROUS], the minimum inhibitory concentration (MIC) against Escherichia coli [1] amounted to 0.5 µg/mL (≈ 1.67 µM); against Escherichia coli [5] it was 0.25 µg/mL (≈ 0.835 µM).

Consider `CC(C)(O/N=C(\C(=O)N[C@@H]1C(=O)N2C(C(=O)[O-])=C(C[n+]3ccccc3)CS[C@H]12)c1csc(N)n1)C(=O)O` [CEFTAZIDIME], for which the minimal inhibitory concentration (MIC) in the assay with Escherichia coli [1] was determined as 0.25 µg/mL (≈ 0.457 µM); with Escherichia coli [6] it was 0.25 µg/mL; with Escherichia coli [2], 16 µg/mL (≈ 29.3 µM); with Escherichia coli [8], 0.25 µg/mL; in the assay with Escherichia coli [7] it was 0.25 µg/mL; with Escherichia coli [3], 64 µg/mL (≈ 117 µM). Besides, the minimum inhibitory concentration (MIC) in the assay on Escherichia coli [4] is 2 µg/mL (≈ 3.66 µM); in the assay with Escherichia coli [5], 0.25 µg/mL (≈ 0.457 µM); in the assay on Escherichia coli [9] it was 0.5 µg/mL; in the assay with Escherichia coli [10], 0.25 µg/mL.

On to `C[C@@H](O)[C@H]1C(=O)N2C(C(=O)O)=C(S[C@@H]3CN[C@H](C(=O)Nc4cccc(C(=O)O)c4)C3)[C@H](C)[C@H]12`, for which the MIC against Escherichia coli [1] and in the assay on Escherichia coli [5] was at most 0.125 µg/mL in each case.

As for `C[C@@H](O)[C@H]1C(=O)N2C(C(=O)O)=C(S[C@@H]3CN[C@H](C(=O)N(C)C)C3)[C@H](C)[C@H]12` [MEROPENEM], the MIC against Escherichia coli [1] and with Escherichia coli [5] was at most 0.06 µg/mL throughout.

With `C[C@H]1[C@H](NC(=O)/C(=N\OC(C)(C)C(=O)O)c2csc(N)n2)C(=O)N1S(=O)(=O)O` [AZTREONAM], the MIC with Escherichia coli [1] was 0.25 µg/mL (≈ 0.574 µM); with Escherichia coli [2] it was 32 µg/mL (≈ 73.5 µM); against Escherichia coli [3], over 64 µg/mL; in the assay with Escherichia coli [4], 8 µg/mL (≈ 18.4 µM).

As for `CN(C)c1cc(NC(=O)CNC(C)(C)C)c(O)c2c1C[C@H]1C[C@H]3[C@H](N(C)C)C(O)=C(C(N)=O)C(=O)[C@@]3(O)C(O)=C1C2=O` [TIGECYCLINE], the minimal inhibitory concentration (MIC) against Escherichia coli [1] and against Escherichia coli [5] was at most 0.25 µg/mL in each case.

Take COLISTIN: the MIC in the assay with Escherichia coli [1], against Escherichia coli [2], in the assay with Escherichia coli [3], against Escherichia coli [4] and against Escherichia coli [5] was under 0.5 µg/mL in each case.

Consider `CO[C@@]1(NC(=O)Cc2cccs2)C(=O)N2C(C(=O)O)=C(COC(N)=O)CS[C@@H]21` [CEFOXITIN], for which the MIC with Escherichia coli [1], against Escherichia coli [2], in the assay on Escherichia coli [3], with Escherichia coli [4] and with Escherichia coli [5] was 8 µg/mL (≈ 18.7 µM) each time.

For the compound `NCC[C@H](O)C(=O)N[C@@H]1C[C@H](N)[C@@H](O[C@H]2O[C@H](CN)[C@@H](O)[C@H](O)[C@H]2O)[C@H](O)[C@H]1O[C@H]1O[C@H](CO)[C@@H](O)[C@H](N)[C@H]1O` [AMIKACIN], the MIC with Escherichia coli [1] was 1 µg/mL (≈ 1.71 µM); against Escherichia coli [2], 2 µg/mL (≈ 3.42 µM); with Escherichia coli [3] it was 4 µg/mL (≈ 6.83 µM); in the assay with Escherichia coli [5], at most 0.5 µg/mL.

With `CCN1CCN(C(=O)N[C@@H](C(=O)N[C@@H]2C(=O)N3[C@@H]2SC(C)(C)[C@@H]3C(=O)O)c2ccccc2)C(=O)C1=O` [PIPERACILLIN], the MIC with Escherichia coli [11] is 16 µg/mL; with Escherichia coli [1], 4 µg/mL (≈ 7.73 µM); against Escherichia coli [2], 64 µg/mL (≈ 124 µM); in the assay with Escherichia coli [12], 4 µg/mL; in the assay on Escherichia coli [3] it was over 64 µg/mL; in the assay with Escherichia coli [13], 4 µg/mL. Also, the MIC in the assay on Escherichia coli [4] is over 64 µg/mL; in the assay with Escherichia coli [14], 4 µg/mL; in the assay with Escherichia coli [15], 4 µg/mL; with Escherichia coli [5], 4 µg/mL (≈ 7.73 µM).

With `CO/N=C(\C(=O)N[C@@H]1C(=O)N2C(C(=O)O)=C(COC(C)=O)CS[C@H]12)c1csc(N)n1` [CEFOTAXIME], the MIC is 0.25 µg/mL (≈ 0.549 µM) with Escherichia coli [1]; at most 0.06 µg/mL in the assay with Escherichia coli [6]; 128 µg/mL (≈ 281 µM) against Escherichia coli [2]; at most 0.06 µg/mL in the assay with Escherichia coli [7]; 256 µg/mL (≈ 562 µM) against Escherichia coli [3]; 64 µg/mL (≈ 141 µM) against Escherichia coli [4]. The MIC is at most 0.125 µg/mL against Escherichia coli [5], 0.125 µg/mL in the assay on Escherichia coli [9] and 0.125 µg/mL with Escherichia coli [10].

Regarding `Cc1cc(NS(=O)(=O)c2ccc(N)cc2)no1` [SULFAMETHOXAZOLE], the MIC was 2 µg/mL (≈ 7.9 µM) in the assay with Escherichia coli [1]; 2 µg/mL (≈ 7.9 µM) in the assay with Escherichia coli [2]; over 1020 µg/mL against Escherichia coli [3]; 16 µg/mL (≈ 63.2 µM) with Escherichia coli [4]; 16 µg/mL (≈ 63.2 µM) with Escherichia coli [5].

For the compound GENTAMICIN, the MIC came to 8 µg/mL against Escherichia coli [2], 0.25 µg/mL with Escherichia coli [3], 0.25 µg/mL with Escherichia coli [4] and 0.25 µg/mL with Escherichia coli [5].

Consider `CN(C)c1ccc(O)c2c1C[C@H]1C[C@H]3[C@H](N(C)C)C(O)=C(C(N)=O)C(=O)[C@@]3(O)C(O)=C1C2=O` [MINOCYCLINE], for which the minimum inhibitory concentration (MIC) against Escherichia coli [1] turned out to be 0.25 µg/mL (≈ 0.546 µM); against Escherichia coli [2], 4 µg/mL (≈ 8.74 µM); against Escherichia coli [3], 2 µg/mL (≈ 4.37 µM); against Escherichia coli [4], 0.25 µg/mL (≈ 0.546 µM); in the assay on Escherichia coli [5], 0.25 µg/mL (≈ 0.546 µM).

Take `CC1(C)S[C@@H]2[C@H](NC(=O)[C@H](N)c3ccc(O)cc3)C(=O)N2[C@H]1C(=O)O` [AMOXICILLIN]: the minimum inhibitory concentration (MIC) in the assay on Escherichia coli [6] was found to be 8 µg/mL; in the assay with Escherichia coli [8], 16 µg/mL; in the assay on Escherichia coli [7], 8 µg/mL; in the assay with Escherichia coli [9], 32 µg/mL; in the assay on Escherichia coli [10] it was 16 µg/mL.

Take `O=C(N[C@H](CO)[C@H](O)c1ccc([N+](=O)[O-])cc1)C(Cl)Cl` [CHLORAMPHENICOL]: the MIC against Escherichia coli [1], against Escherichia coli [2], in the assay with Escherichia coli [3], against Escherichia coli [4] and in the assay on Escherichia coli [5] was 2 µg/mL (≈ 6.19 µM) in each case.

As to `COc1cc(Cc2cnc(N)nc2N)cc(OC)c1OC` [TRIMETHOPRIM], the MIC against Escherichia coli [1] was 0.06 µg/mL (≈ 0.207 µM); against Escherichia coli [2], 0.03 µg/mL (≈ 0.103 µM); in the assay on Escherichia coli [3], over 32 µg/mL; against Escherichia coli [4] it was 0.06 µg/mL (≈ 0.207 µM); in the assay on Escherichia coli [5], 0.06 µg/mL (≈ 0.207 µM).

Consider `CC1(C)S[C@@H]2[C@H](NC(=O)[C@H](N)c3ccccc3)C(=O)N2[C@H]1C(=O)O` [AMPICILLIN], for which the MIC in the assay with Escherichia coli [1] is 16 µg/mL (≈ 45.8 µM); with Escherichia coli [2], over 64 µg/mL; in the assay with Escherichia coli [3], over 64 µg/mL; in the assay on Escherichia coli [4], over 64 µg/mL; in the assay with Escherichia coli [5], 8 µg/mL (≈ 22.9 µM).

Turning to `CN[C@@H]1[C@H](O[C@H]2[C@H](O[C@H]3[C@H](O)[C@@H](O)[C@H](N=C(N)N)[C@@H](O)[C@@H]3N=C(N)N)O[C@@H](C)[C@]2(O)C=O)O[C@@H](CO)[C@H](O)[C@H]1O` [STREPTOMYCIN], the MIC turned out to be 1 µg/mL (≈ 1.72 µM) with Escherichia coli [1]; 0.5 µg/mL (≈ 0.86 µM) with Escherichia coli [2]; 32 µg/mL (≈ 55 µM) with Escherichia coli [3]; 2 µg/mL (≈ 3.44 µM) with Escherichia coli [4]; 1 µg/mL (≈ 1.72 µM) against Escherichia coli [5].
